Series [1] relates to B-cell. The series can be described thus: Immunosuppressive activity in Balb/c mouse B cells assessed as LPS-induced cell proliferation at 100 uM after 48 hrs by MTT assay relative to control. It is filed as functional. In general terms: Formazan colour is commonly taken as a measure of viable cells.
Series [2] relates to T-cell. Put plainly: Immunosuppressive activity in Balb/c mouse T cells assessed as ConA-induced cell proliferation at 100 uM after 48 hrs by MTT assay relative to control. It counts as functional.
For series [3], the system named is B-cell. The series can be described thus: Immunosuppressive activity in Balb/c mouse B cells assessed as LPS-induced cell proliferation at 10 uM after 48 hrs by MTT assay relative to control. It counts as functional.
Series [4] has as its system T-cell. The series can be described thus: Immunosuppressive activity in Balb/c mouse T cells assessed as ConA-induced cell proliferation at 1 uM after 48 hrs by MTT assay relative to control. It is filed as functional.
For series [5], the system named is T-cell. The series can be described thus: Immunosuppressive activity in Balb/c mouse T cells assessed as ConA-induced cell proliferation at 10 uM after 48 hrs by MTT assay relative to control. It is filed as functional.
In series [6] the test system is B-cell. Put plainly: Immunosuppressive activity in Balb/c mouse B cells assessed as LPS-induced cell proliferation at 1 uM after 48 hrs by MTT assay relative to control. It is filed as functional.
The subject of series [7] is T-cell. The series can be described thus: Immunostimulant activity in Balb/c mouse T cells assessed as ConA-induced cell proliferation at 1 uM after 48 hrs by MTT assay relative to control. It is filed as ADME, cell-based.
Series [8] has as its system B-cell. Put plainly: Cytotoxicity against Balb/c mouse B cells assessed as reduction in cell proliferation at 100 uM after 48 hrs by MTT assay. It counts as cell-based.
The subject of series [9] is T-cell. Put plainly: Cytotoxicity against Balb/c mouse T cells assessed as reduction in cell proliferation at 100 uM after 48 hrs by MTT assay. It counts as cell-based.
Series [10] deals with T-cell. The series can be described thus: Immunostimulant activity in Balb/c mouse T cells assessed as ConA-induced cell proliferation at 100 uM after 48 hrs by MTT assay relative to control. It is filed as ADME, cell-based.
For series [11], the system named is B-cell. Put plainly: Cytotoxicity against Balb/c mouse B cells assessed as reduction in cell proliferation at 10 uM after 48 hrs by MTT assay. It is filed as cell-based.
For series [12], the system named is T-cell. Put plainly: Immunostimulant activity in Balb/c mouse T cells assessed as ConA-induced cell proliferation at 10 uM after 48 hrs by MTT assay relative to control. It counts as ADME, cell-based.
The subject of series [13] is T-cell. The series can be described thus: Cytotoxicity against Balb/c mouse T cells assessed as reduction in cell proliferation at 10 uM after 48 hrs by MTT assay. It counts as cell-based.
Series [14] concerns B-cell. The series can be described thus: Cytotoxicity against Balb/c mouse B cells assessed as reduction in cell proliferation at 1 uM after 48 hrs by MTT assay. It counts as cell-based.
Series [15] has as its system B-cell. Put plainly: Immunostimulant activity in Balb/c mouse B cells assessed as LPS-induced cell proliferation at 10 uM after 48 hrs by MTT assay relative to control. It is filed as ADME, cell-based.
Series [16] relates to T-cell. Put plainly: Cytotoxicity against Balb/c mouse T cells assessed as reduction in cell proliferation at 1 uM after 48 hrs by MTT assay. It counts as cell-based.
In series [17] the test system is B-cell. Put plainly: Immunostimulant activity in Balb/c mouse B cells assessed as LPS-induced cell proliferation at 1 uM after 48 hrs by MTT assay relative to control. It is filed as ADME, cell-based.

For `Cc1cc(OCc2cnnn2-c2ccc(C=O)cc2)c(C)c2c1CC[C@H]1[C@H](C)C(=O)O[C@@H]21`, the Activity with B-cell [1] was -35%; with T-cell [2] it was -20.83%; with B-cell [3], -22.5%; in the series on T-cell [4] it was -5.83%; in the series on T-cell [5] it was -6.66%; in the series on B-cell [6], -24.16%.

Consider `CCOC(=O)[C@H](C)c1ccc2c(C)cc(O)c(C)c2c1`, for which the Activity with T-cell [7] is recorded as 15.59%; in the series with B-cell [8], “Toxic”; in the series on T-cell [9], “Toxic”; with T-cell [10], 5.91%; in the series on B-cell [11] it was “Toxic”; with T-cell [12], 39.78%. Also, the Activity is listed as -6.41% in the series on B-cell [1]; “Toxic” with T-cell [13]; “Toxic” in the series with B-cell [14]; 23.5% in the series on B-cell [15]; -3.84% in the series with B-cell [6]; “Toxic” with T-cell [16].

Regarding `Cc1cc(O)c(C)c2c1CCC(C(C)CO)C2O` (configuration not stated), the Activity is reported as 31.18% in the series on T-cell [7]; “Toxic” with B-cell [8]; “Toxic” in the series on T-cell [9]; 6.45% in the series with T-cell [10]; “Toxic” in the series with B-cell [11]; 26.34% in the series on T-cell [12]. For the same molecule, the Activity is reported as -11.96% in the series on B-cell [1]; “Toxic” with T-cell [13]; 14.52% with B-cell [17]; “Toxic” in the series on B-cell [14]; 8.54% with B-cell [15]; “Toxic” with T-cell [16].

Turning to `Cc1cc(O)c(C)c2c1CCC1C2OC(O)C1C` (configuration not stated), the Activity is recorded as 31.95% in the series with T-cell [7]; “Toxic” in the series with B-cell [8]; “Toxic” with T-cell [9]; 16.49% in the series on T-cell [10]; “Toxic” in the series with B-cell [11]; 16.49% in the series with T-cell [12]. In addition, the Activity in the series on B-cell [1] is -12.38%; in the series on T-cell [13], “Toxic”; in the series with B-cell [17], 13.27%; with B-cell [14], “Toxic”; in the series on B-cell [15] it was 9.73%; with T-cell [16] it was “Toxic”.

Turning to `CCOC(=O)[C@H](C)c1ccc2c(C)cc(O)c(C=O)c2c1`, the Activity with T-cell [7] is reported as 34.02%; in the series on B-cell [8], “Toxic”; with T-cell [9] it was “Toxic”; in the series on T-cell [10], 24.74%; in the series on B-cell [11] it was “Toxic”; in the series on T-cell [12], 49.48%. For the same molecule, the Activity in the series with B-cell [1] is given as -2.65%; in the series with T-cell [13] it was “Toxic”; with B-cell [17], 14.15%; with B-cell [3], -5.3%; in the series on B-cell [14] it was “Toxic”; with T-cell [16] it was “Toxic”.

As for `CCOC(=O)[C@H](C)c1ccc2c(C)cc(OC)c(C)c2c1`, the Activity entry was “Toxic” in the series on B-cell [8]; “Toxic” in the series on T-cell [9]; “Toxic” with B-cell [11]; -25.82% with B-cell [1]; “Toxic” in the series with T-cell [13]; -5.88% in the series with T-cell [2]. The Activity is -23.07% in the series with B-cell [3]; -31.61% in the series on T-cell [4]; “Non-Toxic” with B-cell [14]; -37.5% with T-cell [5]; -40.1% in the series on B-cell [6]; “Non-Toxic” in the series on T-cell [16].

As for `COc1ccc2cc(-n3nncc3COc3cc(C)c4c(c3C)[C@@H]3OC(=O)[C@@H](C)[C@@H]3CC4)ccc2c1`, the Activity was -94.01% with B-cell [1]; -93.9% in the series on T-cell [2]; -25.64% with B-cell [3]; -93.9% in the series with T-cell [4]; -95.12% with T-cell [5]; -36.75% in the series on B-cell [6].

Turning to `Cc1ccc(NC(=O)[C@H](C)[C@@H]2CCc3c(C)cc(O)c(C)c3C2)cc1O`, the Activity is recorded as 11.53% with T-cell [7]; “Non-Toxic” with B-cell [8]; “Non-Toxic” in the series on T-cell [9]; 9.89% in the series with T-cell [10]; “Non-Toxic” in the series with B-cell [11]; 3.84% with T-cell [12]. In addition, the Activity in the series on B-cell [1] was -29.35%; in the series on T-cell [13], “Non-Toxic”; in the series with B-cell [17], 6.96%; in the series on B-cell [14] it was “Non-Toxic”; in the series with B-cell [15], 11.44%; in the series with T-cell [16] it was “Non-Toxic”.

As to `Cc1cc(OCc2cnnn2-c2ccc3c(c2)OCO3)c(C)c2c1CC[C@H]1[C@H](C)C(=O)O[C@@H]21`, the Activity with B-cell [1] is on record as -32.63%; with T-cell [2], -29.47%; in the series on B-cell [3] it was -50.52%; with T-cell [4] it was -29.47%; with T-cell [5] it was -45.26%; in the series with B-cell [6], -14.73%.

For `Cc1ccc(I)cc1-n1nncc1COc1cc(C)c2c(c1C)[C@@H]1OC(=O)[C@@H](C)[C@@H]1CC2`, the Activity was -16.84% in the series on B-cell [1]; -23.15% in the series on T-cell [2]; -14.73% in the series with B-cell [3]; -13.68% in the series on T-cell [4]; -26.31% in the series with T-cell [5]; -34.73% with B-cell [6].

Turning to `Cc1cc(OCc2cnnn2-c2cccc(I)c2)c(C)c2c1CC[C@H]1[C@H](C)C(=O)O[C@@H]21`, the Activity in the series on B-cell [1] is recorded as -15.79%; with T-cell [2], -3.15%; in the series on B-cell [3], -20%; with T-cell [4] it was -15.79%; in the series on T-cell [5] it was -20%; with B-cell [6] it was -15.79%.

Take `CC(=O)Nc1ccc(-n2nncc2COc2cc(C)c3c(c2C)[C@@H]2OC(=O)[C@@H](C)[C@@H]2CC3)cc1`: the Activity is on record as -8.42% in the series on B-cell [1]; -6.31% in the series on T-cell [2]; -36.84% in the series on B-cell [3]; -28.42% in the series with T-cell [4]; -29.47% in the series on T-cell [5]; -44.21% with B-cell [6].

Regarding `Cc1cc(O)c(C)c2c1CC[C@@H]([C@@H](C)C(=O)Nc1nccc(C)c1[N+](=O)[O-])C2`, the Activity with T-cell [7] was 24.72%; with B-cell [8] it was “Non-Toxic”; in the series with T-cell [9], “Non-Toxic”; in the series with B-cell [11] it was “Toxic”; in the series on T-cell [12], 42.85%; with B-cell [1] it was -2.98%. Further, the Activity result is reported as “Toxic” with T-cell [13]; -26.37% with T-cell [2]; 28.35% with B-cell [17]; “Toxic” in the series on B-cell [14]; 64.67% in the series on B-cell [15]; “Toxic” with T-cell [16].

For the molecule `CC1=C(Cl)C=C[C@]2(C)CC[C@@H]3C(=C12)OC(=O)[C@H]3C`, the Activity result in the series with B-cell [8] was “Toxic”; with T-cell [9], “Toxic”; with T-cell [10], 9.27%; with B-cell [11], “Toxic”; with T-cell [12], 16.49%; in the series with B-cell [1] it was -4.42%. In addition, the Activity result is listed as “Toxic” with T-cell [13]; -5.15% with T-cell [4]; “Toxic” with B-cell [14]; 7.96% with B-cell [15]; -8.84% in the series on B-cell [6]; “Toxic” in the series on T-cell [16].

Turning to `Cc1cc(O)c(C)c2c1CC[C@@H]([C@@H](C)C(=O)N1CCOCC1)C2`, the Activity is 8.79% in the series on T-cell [7]; “Non-Toxic” in the series on B-cell [8]; “Non-Toxic” in the series with T-cell [9]; “Non-Toxic” in the series on B-cell [11]; 12.08% with T-cell [12]; -2.98% in the series on B-cell [1]. The Activity entry is “Non-Toxic” in the series with T-cell [13]; -21.42% in the series on T-cell [2]; “Non-Toxic” with B-cell [14]; 14.92% in the series on B-cell [15]; -4.97% with B-cell [6]; “Non-Toxic” in the series with T-cell [16].

Take `COc1cccc(NC(=O)[C@H](C)[C@@H]2CCc3c(C)cc(O)c(C)c3C2)c1`: the Activity in the series with T-cell [7] is reported as 8.79%; in the series on B-cell [8], “Non-Toxic”; in the series on T-cell [9], “Non-Toxic”; in the series with B-cell [11], “Non-Toxic”; in the series on B-cell [1] it was -13.93%; in the series on T-cell [13] it was “Non-Toxic”. Besides, the Activity with T-cell [2] is -31.86%; in the series on B-cell [14] it was “Toxic”; with T-cell [5] it was -12.63%; in the series on B-cell [15], 3.98%; in the series with B-cell [6], -0.99%; with T-cell [16] it was “Toxic”.

As to `COc1cc(-n2nncc2COc2cc(C)c3c(c2C)[C@@H]2OC(=O)[C@@H](C)[C@@H]2CC3)cc(OC)c1OC`, the Activity in the series with B-cell [1] is given as -14.73%; in the series on T-cell [2], -16.84%; with B-cell [3], -26.31%; in the series on T-cell [4] it was -20%; in the series on T-cell [5], -14.73%; with B-cell [6], -16.84%.

The values above are taken from ChEMBL document CHEMBL3994585, “Synthesis of α-santonin derivatives for diminutive effect on T and B-cell proliferation and their structure activity relationships” (Eur J Med Chem, 2017).
